According to the NIST ThermoML archive (doi:10.1016/j.jct.2007.07.005):

Experiment: xn = mol fraction of the nth substance listed
Conditions: Fluid (supercritical or subcritical phases), vibrating tube

CCCCCO [pentan-1-ol] + O=C=O
Conditions	mass density [kg/m3]
342.76 K, 3011 kPa, x2 = 0	778.59
342.76 K, 4012 kPa, x2 = 0	779.47
342.76 K, 5011 kPa, x2 = 0	780.34
342.76 K, 6011 kPa, x2 = 0	781.22
342.76 K, 7003 kPa, x2 = 0	782.03
342.76 K, 8015 kPa, x2 = 0	782.91
342.76 K, 9000 kPa, x2 = 0	783.73
342.76 K, 10019 kPa, x2 = 0	784.58
342.76 K, 11020 kPa, x2 = 0	785.4
342.76 K, 12002 kPa, x2 = 0	786.2
342.76 K, 13016 kPa, x2 = 0	787.02
342.76 K, 14024 kPa, x2 = 0	787.81
342.76 K, 15002 kPa, x2 = 0	788.59
342.76 K, 16007 kPa, x2 = 0	789.36
342.76 K, 17037 kPa, x2 = 0	790.15
342.76 K, 17988 kPa, x2 = 0	790.87
342.76 K, 19037 kPa, x2 = 0	791.66
342.76 K, 20003 kPa, x2 = 0	792.38
342.76 K, 21015 kPa, x2 = 0	793.14
342.76 K, 22019 kPa, x2 = 0	793.88
342.76 K, 23039 kPa, x2 = 0	794.62
342.76 K, 24027 kPa, x2 = 0	795.36
342.76 K, 25028 kPa, x2 = 0	796.1
342.84 K, 15024 kPa, x2 = 0.9757	576.16
342.84 K, 16006 kPa, x2 = 0.9757	609.2
342.84 K, 17033 kPa, x2 = 0.9757	637.26
342.84 K, 18023 kPa, x2 = 0.9757	659.89
342.84 K, 19028 kPa, x2 = 0.9757	679.62
342.84 K, 20027 kPa, x2 = 0.9757	696.58
342.84 K, 21039 kPa, x2 = 0.9757	711.98
342.84 K, 22011 kPa, x2 = 0.9757	725.1
342.84 K, 23016 kPa, x2 = 0.9757	737.54
342.87 K, 8048 kPa, x2 = 0.3624	796.26
342.87 K, 9023 kPa, x2 = 0.3624	797.49
342.87 K, 10006 kPa, x2 = 0.4651	797.4
342.87 K, 10022 kPa, x2 = 0.3624	798.77
342.87 K, 11004 kPa, x2 = 0.3624	799.97
342.87 K, 11022 kPa, x2 = 0.4651	799.24
342.87 K, 11991 kPa, x2 = 0.4651	801.02
342.87 K, 12013 kPa, x2 = 0.3624	801.19
342.87 K, 13001 kPa, x2 = 0.4651	802.82
342.87 K, 13035 kPa, x2 = 0.3624	802.37
342.87 K, 13990 kPa, x2 = 0.3624	803.48
342.87 K, 13990 kPa, x2 = 0.4651	804.53
342.87 K, 14011 kPa, x2 = 0.7274	784.26
342.87 K, 14992 kPa, x2 = 0.7274	789
342.87 K, 15018 kPa, x2 = 0.3624	804.64
342.87 K, 15036 kPa, x2 = 0.4651	806.31
342.87 K, 16009 kPa, x2 = 0.3624	805.73
342.87 K, 16014 kPa, x2 = 0.4651	807.95
342.87 K, 16025 kPa, x2 = 0.7274	793.59
342.87 K, 17000 kPa, x2 = 0.3624	806.82
342.87 K, 17004 kPa, x2 = 0.4651	809.55
342.87 K, 17006 kPa, x2 = 0.7274	797.68
342.87 K, 18005 kPa, x2 = 0.7274	801.59
342.87 K, 18017 kPa, x2 = 0.4651	811.18
342.87 K, 18021 kPa, x2 = 0.3624	807.94
342.87 K, 19019 kPa, x2 = 0.4651	812.75
342.87 K, 19032 kPa, x2 = 0.7274	805.44
342.87 K, 19036 kPa, x2 = 0.3624	809.03
342.87 K, 19983 kPa, x2 = 0.7274	808.81
342.87 K, 20012 kPa, x2 = 0.3624	810.06
